Activity calls are given as the source filed them. The rule behind the calls is not given here.

The assay concerns Radical scavenging activity. Kind of assay: Antioxidant activity assessed as DPPH free radical scavenging activity by TLC autographic assay. The class given is functional.
`C[C@@H]1O[C@@H](O[C@@H]2[C@@H](O)[C@H](OCCc3ccc(O)c(O)c3)O[C@H](CO)[C@H]2OC(=O)/C=C/c2ccc(O)c(O)c2)[C@H](O)[C@H](O)[C@H]1O`: the result was Active.
In the case of `C[C@@H]1O[C@@H](O[C@@H]2[C@H]3O[C@@H](c4ccc(O)c(O)c4)CO[C@@H]3O[C@H](CO)[C@H]2OC(=O)/C=C/c2ccc(O)c(O)c2)[C@H](O)[C@H](O)[C@H]1O`, the outcome was Active.
In the case of `C[C@@H]1O[C@@H](O[C@@H]2[C@@H](O)[C@H](OCCc3ccc(O)c(O)c3)O[C@H](CO)[C@H]2OC(=O)/C=C/c2ccc(O)c(O)c2)[C@H](O)[C@H](O)[C@H]1O[C@@H]1OC[C@@H](O)[C@H](O)[C@H]1O`, the outcome was Active.
Consider `C[C@@H]1O[C@@H](O[C@@H]2[C@@H](O)[C@H](OCCc3ccc(O)c(O)c3)O[C@H](CO)[C@H]2OC(=O)/C=C/c2ccc(O)c(O)c2)[C@H](O)[C@H](O)[C@H]1O[C@@H]1O[C@H](CO)[C@@H](O)[C@H](O)[C@H]1O`, for which the outcome was Active.
With `C[C@@H]1O[C@@H](O[C@@H]2[C@@H](O)[C@H](OCCc3ccc(O)c(O)c3)O[C@H](CO[C@@H]3OC[C@@H](O)[C@H](O)[C@H]3O)[C@H]2OC(=O)/C=C/c2ccc(O)c(O)c2)[C@H](O)[C@H](O)[C@H]1O[C@@H]1OC[C@@H](O)[C@H](O)[C@H]1O`, the outcome was Active.

The record behind these values is ChEMBL document CHEMBL1144094, “Phenylethanoid glycosides from Globularia trichosantha” (J Nat Prod, 1999).
